Assay results reported in patent US10563263B2, “Genetic polymorphisms associated with statin response and cardiovascular diseases, methods of detection and uses thereof” (CELERA CORPORATION, priority 2010, dated 2020).

Tested on: CHD (death from CHD, nonfatal MI, or revascularization)
Experiment: WOSCOPS: SNP by pravastatin treatment interaction, logistic regression (synergy index), CHD endpoint
Format: in vivo, human
Details: for OR (synergy index), WOSCOPS, Prava vs Placebo: CHD endpoint; for OR (synergy index): WOSCOPS
Description: CARE was a secondary prevention trial and WOSCOPS was a primary prevention trial.
The CHD endpoint was defined in the analyses herein of CARE as a composite endpoint of fatal CHD, definite non-fatal MI, or revascularization, and was defined in the analyses herein of WOSCOPS as a composite endpoint of death from CHD, nonfatal MI, or revascularization. In both the CARE and WOSCOPS analyses herein, the CVD endpoint was defined as a composite endpoint of CHD or stroke. […] Revascularization, which can include percutaneous transluminal coronary angioplasty (PTCA), stent placement, and coronary artery bypass graft (CABG), are medical interventions that indicate the presence of CHD.
Cohort and case-only study designs were used to identify SNPs associated with response to statin treatment.
For each SNP, a logistic regression model having treatment status as the dependent variable and SNP as the independent predictor variable was performed, with terms for age, sex and race included in the model as covariates. The anti-log of the regression coefficient corresponding to the SNP is an estimate of the synergy index (SI) (Davis et al., “Imputing gene-treatment interactions when the genotype distribution is unknown using case-only and putative placebo analyses-a new method for the Genetics of Hypertension Associated Treatment (GenHAT) study”, Statistics in Medicine 23: (2004), pages 2413-2427). The SI is a ratio of odds ratios: for example in the CARE and WOSCOPS studies, the SI represents the factor by which the odds-ratio of statin treatment, compared with placebo, among major homozygous individuals is multiplied by in order to obtain the odds-ratio of treatment vs. placebo among heterozygous individuals; and multiplied by a second time to obtain the odds-ratio of treatment vs. placebo in minor homozygous individuals. The case-only study design results in a valid estimate of the SI under the assumption that genotype and treatment are independent in the population. In a randomized clinical trial, genotype and treatment are independent by design. The p-value for the regression coefficient corresponding to the SNP results from a test of the null hypothesis that the regression coefficient is equal to zero (SI is equal to one) and thus small p-values indicate the SI is unlikely equal to one and that the effect of treatment likely differs by genotype. […]

CC[C@H](C)C(=O)O[C@H]1C[C@H](O)C=C2C=C[C@H](C)[C@H](CC[C@@H](O)C[C@@H](O)CC(=O)O)[C@H]21 [Pravastatin, pravastatin]
OR (synergy index), WOSCOPS, Prava vs Placebo (SNP rs198462 (A1 G, A2 A), rec model, Caseonly): 2.12 | OR (synergy index), WOSCOPS, Prava vs Placebo (SNP rs198476 (A1 G, A2 A), rec model, cohort): 1.61 | OR (synergy index), WOSCOPS, Prava vs Placebo (SNP rs471579 (A1 A, A2 C), add model, Caseonly): 1.62 | OR (synergy index), WOSCOPS, Prava vs Placebo (SNP rs1324012 (A1 A, A2 G), add model, Caseonly): 0.60 | OR (synergy index), WOSCOPS, Prava vs Placebo (SNP rs1917527 (A1 A, A2 C), rec model, Caseonly): 0.73 | OR (synergy index), WOSCOPS, Prava vs Placebo (SNP rs7873371 (A1 A, A2 G), add model, Caseonly): 1.59 | OR (synergy index) (rs992695, Imputed, allele (A1) C, model ADD, NMISS 431): 0.7364 | OR (synergy index) (rs992695, Imputed, allele (A1) C, model DOM, NMISS 431): 0.6065 | OR (synergy index) (rs9881685, Imputed, allele (A1) A, model ADD, NMISS 431): 0.4853 | OR (synergy index) (rs9881685, Imputed, allele (A1) A, model DOM, NMISS 431): 0.4903 | OR (synergy index) (rs9936999, Imputed, allele (A1) G, model DOM, NMISS 249): 1.779 | WOSCOPS OR (rs1948, source CaseOnly, model dom, endpoint CHD): 1.96 | WOSCOPS OR (rs198476, Source cohort): 1.61 | WOSCOPS OR (rs238272, source CaseOnly, model add, endpoint CHD): 1.46 | WOSCOPS OR (rs264122, Source cohort): 0.66 | OR (synergy index) (rs483159 allele T, DOM model, Imputed): 1.412 | OR (synergy index) (rs489441 allele G, ADD model, Imputed): 1.6 | OR (synergy index) (rs489441 allele G, DOM model, Imputed): 1.651 | WOSCOPS OR (rs694780, Source caseonly): 0.62 | WOSCOPS OR (rs842796, source CaseOnly, model dom, endpoint CHD): 1.38 | WOSCOPS OR (rs886469, source CaseOnly, model dom, endpoint CHD): 0.55 | WOSCOPS OR (rs912366, source CaseOnly, model dom, endpoint CHD): 1.79 | WOSCOPS OR (rs969356, source CaseOnly, model dom, endpoint CHD): 0.54 | WOSCOPS OR (rs1009748, Source cohort): 1.35 | WOSCOPS OR (rs1015199, Source caseonly): 1.66 | WOSCOPS OR (rs1190706, Source cohort): 0.70 | WOSCOPS OR (rs1336400, Source caseonly): 1.35 | WOSCOPS OR (rs1538185, source cohort, model dom, endpoint CHD): 1.41 | WOSCOPS OR (rs1544214, source CaseOnly, model add, endpoint CHD): 1.35 | WOSCOPS OR (rs1615197, source CaseOnly, model dom, endpoint CHD): 2.25 | WOSCOPS OR (rs1705244, source CaseOnly, model dom, endpoint CHD): 0.52 | WOSCOPS OR (rs1864924, source CaseOnly, model add, endpoint CHD): 1.36 | WOSCOPS OR (rs1877986, source cohort, model dom, endpoint CHD): 0.71 | WOSCOPS OR (rs1884897, source CaseOnly, model rec, endpoint CHD): 1.78 | WOSCOPS OR (rs2008165, source cohort, model add, endpoint CHD): 0.62 | WOSCOPS OR (rs2069542, source CaseOnly, model add, endpoint CHD): 1.49 | WOSCOPS OR (rs2104506, source CaseOnly, model add, endpoint CHD): 0.65 | WOSCOPS OR (rs2108425, Source caseonly): 0.62 | WOSCOPS OR (rs2263901, source CaseOnly, model add, endpoint CHD): 1.57 | WOSCOPS OR (rs2263920, source CaseOnly, model rec, endpoint CHD): 0.41 | WOSCOPS OR (rs2265346, source CaseOnly, model dom, endpoint CHD): 0.42 | WOSCOPS OR (rs2273816, source CaseOnly, model add, endpoint CHD): 1.69 | WOSCOPS OR (rs2274473, source CaseOnly, model dom, endpoint CHD): 0.48 | WOSCOPS OR (rs2327412, Source caseonly): 1.41 | WOSCOPS OR (rs2418412, source cohort, model rec, endpoint CHD): 1.58 | WOSCOPS OR (rs2616548, Source caseonly): 1.37 | WOSCOPS OR (rs2648694, Source caseonly): 2.29 | WOSCOPS OR (rs2655222, Source caseonly): 0.20 | WOSCOPS OR (rs2941528, source CaseOnly, model add, endpoint CHD): 0.58 | WOSCOPS OR (rs2993156, Source caseonly): 0.76 | WOSCOPS OR (rs3732788, source CaseOnly, model add, endpoint CHD): 0.44 | WOSCOPS OR (rs3759607, source CaseOnly, model dom, endpoint CHD): 1.73 | WOSCOPS OR (rs3763978, Source cohort): 0.68 | WOSCOPS OR (rs3998860, source CaseOnly, model add, endpoint CHD): 0.70 | WOSCOPS OR (rs4240808, Source caseonly): 0.61 | WOSCOPS OR (rs4242281, Source caseonly): 1.46 | OR (synergy index) (rs4315598 allele T, ADD model, Imputed): 1.407 | OR (synergy index) (rs4315598 allele T, REC model, Imputed): 1.414 | OR (synergy index) (rs4321395 allele A, DOM model, Imputed): 0.5278 | OR (synergy index) (rs4321596 allele T, REC model, Genotyped): 3.01 | OR (synergy index) (rs4324417 allele T, DOM model, Imputed): 1.541 | OR (synergy index) (rs4328619 allele G, DOM model, Genotyped): 0.6446 | OR (synergy index) (rs4338909 allele T, ADD model, Imputed): 1.42 | OR (synergy index) (rs4370878 allele G, DOM model, Imputed): 1.497 | OR (synergy index) (rs4379434 allele T, DOM model, Genotyped): 1.603 | OR (synergy index) (rs4416407 allele T, DOM model, Imputed): 1.502 | OR (synergy index) (rs4417899 allele C, REC model, Imputed): 0.6657 | WOSCOPS OR (rs4420312, Source caseonly): 0.64 | OR (synergy index) (rs4442732 allele A, ADD model, Imputed): 0.7543 | OR (synergy index) (rs4444612 allele G, ADD model, Imputed): 1.407 | OR (synergy index) (rs4444612 allele G, REC model, Imputed): 1.414 | OR (synergy index) (rs4450660 allele C, DOM model, Imputed): 1.776 | OR (synergy index) (rs4509702 allele C, DOM model, Imputed): 1.497 | OR (synergy index) (rs4533145 allele T, DOM model, Imputed): 0.6617 | OR (synergy index) (rs4557006 allele A, DOM model, Imputed): 0.5409 | OR (synergy index) (rs4570530 allele C, DOM model, Imputed): 1.497 | OR (synergy index) (rs4615971 allele C, DOM model, Imputed): 1.474 | OR (synergy index) (rs4628119 allele A, DOM model, Imputed): 0.5304 | OR (synergy index) (rs4664443 allele G, ADD model, Imputed): 0.6931 | WOSCOPS OR (rs4682522, source CaseOnly, model dom, endpoint CHD): 0.49 | OR (synergy index) (rs4688259 allele T, DOM model, Imputed): 1.502 | OR (synergy index) (rs4688632 allele G, REC model, Imputed): 0.6718 | OR (synergy index) (rs4695284 allele A, ADD model, Imputed): 1.566 | OR (synergy index) (rs4700302 allele A, ADD model, Imputed): 0.5418 | OR (synergy index) (rs4702720 allele A, ADD model, Imputed): 0.7075 | OR (synergy index) (rs4702720 allele A, DOM model, Imputed): 0.7149 | OR (synergy index) (rs4714484 allele A, ADD model, Imputed): 0.5609
